Experimental data from patent publication US12540131B2 (Merck Sharp & Dohme LLC, priority 2019, dated 2026).

Biological target: GST tagged truncated human mutant G2019S LRRK2 (Homo sapiens (Human), UniProt Q5S007, G2019S)
Test: LRRK2 Km ATP LanthaScreen Assay
Assay type: biochemical
Settings: G2019S LRRK2, 134 μM ATP (Km ATP), mean values
In short: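 Enzyme (GST-tagged, truncated) was preincubated with compound for 15 min at RT in 50 mM Tris pH 8.5, 10 mM MgCl2, 0.01% Brij-35, 1 mM EGTA, 2 mM DTT and 0.05 mM orthovanadate. Fluorescein-LRRKtide and 134 μM ATP (Km) were then added for 90 min. EDTA and Tb-anti-pERM antibody stopped the reaction; the TR-FRET 520/495 ratio gave 4-parameter IC50s, reported as mean pIC50.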

Sequence of GST tagged truncated human mutant G2019S LRRK2 (Q5S007 970-2527 G2019S): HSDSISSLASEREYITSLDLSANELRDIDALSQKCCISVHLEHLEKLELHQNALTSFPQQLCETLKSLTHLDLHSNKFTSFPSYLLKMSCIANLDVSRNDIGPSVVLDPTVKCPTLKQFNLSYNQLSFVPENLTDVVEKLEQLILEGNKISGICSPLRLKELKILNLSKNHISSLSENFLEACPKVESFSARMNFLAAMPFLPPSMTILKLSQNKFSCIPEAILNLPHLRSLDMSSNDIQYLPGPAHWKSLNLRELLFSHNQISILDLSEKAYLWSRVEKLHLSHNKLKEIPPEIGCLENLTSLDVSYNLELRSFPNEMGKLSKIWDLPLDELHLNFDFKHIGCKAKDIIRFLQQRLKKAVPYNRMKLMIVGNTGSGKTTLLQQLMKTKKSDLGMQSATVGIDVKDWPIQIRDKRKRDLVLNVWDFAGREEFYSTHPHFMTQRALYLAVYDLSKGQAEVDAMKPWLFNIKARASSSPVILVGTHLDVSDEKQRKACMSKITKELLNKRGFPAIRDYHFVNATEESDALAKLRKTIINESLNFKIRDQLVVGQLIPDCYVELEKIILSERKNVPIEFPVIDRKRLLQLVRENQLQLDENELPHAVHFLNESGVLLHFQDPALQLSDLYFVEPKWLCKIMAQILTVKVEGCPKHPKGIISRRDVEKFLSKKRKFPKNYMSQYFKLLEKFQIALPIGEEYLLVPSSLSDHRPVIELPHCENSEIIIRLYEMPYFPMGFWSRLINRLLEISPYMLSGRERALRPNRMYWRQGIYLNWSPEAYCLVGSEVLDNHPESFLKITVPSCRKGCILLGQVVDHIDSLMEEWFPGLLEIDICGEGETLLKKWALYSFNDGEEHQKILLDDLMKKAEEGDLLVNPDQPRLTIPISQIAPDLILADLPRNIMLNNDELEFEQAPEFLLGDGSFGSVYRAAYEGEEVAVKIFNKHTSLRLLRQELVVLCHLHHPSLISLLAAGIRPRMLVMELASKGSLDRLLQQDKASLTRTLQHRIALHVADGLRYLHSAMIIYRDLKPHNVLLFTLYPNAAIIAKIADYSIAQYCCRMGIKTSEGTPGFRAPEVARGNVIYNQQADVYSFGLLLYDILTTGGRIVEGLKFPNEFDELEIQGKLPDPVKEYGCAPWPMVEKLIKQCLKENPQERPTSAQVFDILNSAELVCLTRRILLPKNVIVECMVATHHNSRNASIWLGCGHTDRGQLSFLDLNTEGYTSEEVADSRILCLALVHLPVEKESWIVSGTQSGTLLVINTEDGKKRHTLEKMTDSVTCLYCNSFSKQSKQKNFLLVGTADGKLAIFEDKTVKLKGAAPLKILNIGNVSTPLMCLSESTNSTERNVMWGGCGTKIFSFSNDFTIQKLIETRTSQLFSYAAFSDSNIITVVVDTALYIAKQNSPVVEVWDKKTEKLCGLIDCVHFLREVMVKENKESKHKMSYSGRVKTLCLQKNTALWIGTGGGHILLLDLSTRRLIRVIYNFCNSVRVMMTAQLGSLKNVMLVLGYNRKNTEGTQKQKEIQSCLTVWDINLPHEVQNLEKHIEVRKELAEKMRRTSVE

Q: Which “LRRK2 pIC50” value does the source give for Cc1cc(Nc2ncc3cc(Cl)c(C4CCN([C@H]5COC[C@H]5O)CC4)cc3n2)n(C)n1 (single isomer, unassigned) [Ex-2.68, (3S,4S) or (3R,4R) 4-(4-{6-chloro-2-[(1,3-dimethyl-1H-pyrazol-5-yl)amino]quinazolin-7-yl}piperidin-1-yl)oxolan-3-ol] here?
A: >9.20

Q: How did the “LRRK2 pIC50” value turn out when [2H]C([2H])([2H])n1nc(C)cc1Nc1ncc2cc(Cl)c(C3CCN([C@H]4COC[C@H]4O)CC3)cc2n1 (single isomer, unassigned) [Ex-2.69, (3S,4S) or (3R,4R) 4-(4-(6-chloro-2-((3-methyl-1-(methyl-d3)-1H-pyrazol-5-yl)amino)quinazolin-7-yl)piperidin-1-yl)tetrahydrofuran-3-ol] was run?
A: 8.21

Q: For [2H]C([2H])([2H])n1ncc(Nc2ncc3cc(Cl)c(C4CCN([C@H]5COC[C@H]5O)CC4)cc3n2)c1Cl (single isomer, unassigned) [Ex-2.70, (3S,4S) or (3R,4R) 4-(4-(6-chloro-2-((5-chloro-1-(methyl-d3)-1H-pyrazol-4-yl)amino)quinazolin-7-yl)piperidin-1-yl)tetrahydrofuran-3-ol], which “LRRK2 pIC50” value is on record?
A: >9.20

Q: With Cc1c(Nc2ncc3cc(Cl)c(C4CCN(C5COC5)CC4)cc3n2)cnn1C1CC1(F)F (single isomer, unassigned) [Ex-2.73, (S) or (R) 6-chloro-N-[1-(2,2-difluorocyclopropyl)-5-methyl-1H-pyrazol-4-yl]-7-[1-(oxetan-3-yl)piperidin-4-yl]quinazolin-2-amine] as the molecule, how does the IC50 (read-out: LRRK2 pIC50 (converted)) read?
A: 955 pM

Q: With Cc1c(Nc2ncc3cc(Cl)c(C4CCN([C@@H]5COC[C@@H]5O)CC4)cc3n2)cnn1C(C)(C)C#N (single isomer, unassigned) [Ex-2.74, (3S,4S) or (3R,4R) 2-[4-({6-chloro-7-[1-(4-hydroxyoxolan-3-yl)piperidin-4-yl]quinazolin-2-yl}amino)-5-methyl-1H-pyrazol-1-yl]-2-methylpropanenitrile] as the molecule, how does the “LRRK2 pIC50” value read?
A: >9.20

Q: Cc1cc(Nc2ncc3cc(Cl)c(C4CCN([C@@H]5COC[C@@H]5O)CC4)cc3n2)n(C2CC2)n1 (single isomer, unassigned) [Ex-2.75, (3S,4S) or (3R,4R)4-(4-{6-chloro-2-[(1-cyclopropyl-3-methyl-1H-pyrazol-5-yl)amino]quinazolin-7-yl}piperidin-1-yl)oxolan-3-ol] was tested. Which “LRRK2 pIC50” value did it give?
A: 8.63

Q: Cn1ncc(Nc2ncc3cc(Cl)c(C4CCN([C@]5(C)COC[C@@H]5O)CC4)cc3n2)c1Cl (single isomer, unassigned) [Ex-2.76, (3S,4S) or (3R,4R) 4-(4-(6-chloro-2-((5-chloro-1-methyl-1H-pyrazol-4-yl)amino)quinazolin-7-yl)piperidin-1-yl)-4-methyltetrahydrofuran-3-ol] was tested. Which “LRRK2 pIC50” value did it give?
A: 7.76

Q: Which “LRRK2 pIC50” value does the source give for Cc1c(Nc2ncc3cc(Cl)c(C4CCN([C@]5(C)COC[C@@H]5O)CC4)cc3n2)cnn1C (single isomer, unassigned) [Ex-2.77, (3S,4S) or (3R,4R) 4-(4-{6-chloro-2-[(1,5-dimethyl-1H-pyrazol-4-yl)amino]quinazolin-7-yl}piperidin-1-yl)-4-methyloxolan-3-ol] here?
A: 8.01

Q: Cc1cc2cnc(Nc3cnn(C)c3Cl)nc2cc1C1CCN([C@@H]2COC[C@@H]2O)CC1 (single isomer, unassigned) [Ex-2.78, (3S,4S) or (3R,4R) 4-(4-{2-[(5-chloro-1-methyl-1H-pyrazol-4-yl)amino]-6-methylquinazolin-7-yl}piperidin-1-yl)oxolan-3-ol] was tested. Which “LRRK2 pIC50” value did it give?
A: >9.20

Q: Which “LRRK2 pIC50” value does the source give for Cc1cc2cnc(Nc3cnn(C)c3C)nc2cc1C1CCN([C@@H]2COC[C@@H]2O)CC1 (single isomer, unassigned) [Ex-2.79, (3S,4S) or (3R,4R) 4-(4-{2-[(1,5-dimethyl-1H-pyrazol-4-yl)amino]-6-methylquinazolin-7-yl}piperidin-1-yl)oxolan-3-ol] here?
A: >9.20

Q: With Cc1cc2cnc(Nc3cnn(C)c3Cl)nc2cc1C1CCN([C@]2(C)COC[C@@H]2O)CC1 (single isomer, unassigned) [Ex-2.80, (3S,4S) or (3R,4R) 4-(4-{2-[(5-chloro-1-methyl-1H-pyrazol-4-yl)amino]-6-methylquinazolin-7-yl}piperidin-1-yl)-4-methyloxolan-3-ol] as the molecule, how does the “LRRK2 pIC50” value read?
A: 7.14

Q: How did the “LRRK2 pIC50” value turn out when Cc1cc2cnc(Nc3cnn(C)c3C)nc2cc1C1CCN([C@]2(C)COC[C@@H]2O)CC1 (single isomer, unassigned) [Ex-2.81, (3S,4S) or (3R,4R) 4-(4-{2-[(1,5-dimethyl-1H-pyrazol-4-yl)amino]-6-methylquinazolin-7-yl}piperidin-1-yl)-4-methyloxolan-3-ol] was run?
A: 7.35

Q: For Cn1ncc(Nc2ncc3cc(Cl)c(C4CCN([C@]5(C)COC[C@@H]5O)CC4)cc3n2)c1C(F)F (single isomer, unassigned) [Ex-2.82, (3S,4S) or (3R,4R) 4-[4-(6-chloro-2-{[5-(difluoromethyl)-1-methyl-1H-pyrazol-4-yl]amino}quinazolin-7-yl)piperidin-1-yl]-4-methyloxolan-3-ol], which “LRRK2 pIC50” value is on record?
A: >9.20

Q: With Cn1nc(C(C)(C)C)cc1Nc1ncc2cc(Cl)c(C3CCN([C@]4(C)COC[C@@H]4O)CC3)cc2n1 (single isomer, unassigned) [Ex-2.83, (3S,4S) or (3R,4R) 4-(4-{2-[(3-tert-butyl-1-methyl-1H-pyrazol-5-yl)amino]-6-chloroquinazolin-7-yl}piperidin-1-yl)-4-methyloxolan-3-ol] as the molecule, how does the “LRRK2 pIC50” value read?
A: 8.71

Q: With C[C@@]1(N2CCC(c3cc4nc(Nc5ccnn5C5CC5(F)F)ncc4cc3Cl)CC2)COC[C@@H]1O (single isomer, unassigned) [Ex-2.84, (S)(3S,4S) or (S)(3R,4R) or (R)(3S,4S) or (R)(3R,4R) 4-[4-(6-chloro-2-{[1-(2,2-difluorocyclopropyl)-1H-pyrazol-5-yl]amino}quinazolin-7-yl)piperidin-1-yl]-4-methyloxolan-3-ol] as the molecule, how does the “LRRK2 pIC50” value read?
A: 8.80

Q: C[C@@]1(N2CCC(c3cc4nc(Nc5ccnn5C5CC5)ncc4cc3Cl)CC2)COC[C@@H]1O (single isomer, unassigned) [Ex-2.85, (3S,4S) or (3R,4R) 4-(4-{6-chloro-2-[(1-cyclopropyl-1H-pyrazol-5-yl)amino]quinazolin-7-yl}piperidin-1-yl)-4-methyloxolan-3-ol] was tested. Which “LRRK2 pIC50” value did it give?
A: 9.03

Q: How did the “LRRK2 pIC50” value turn out when Cc1nn(C)c(Nc2ncc3cc(Cl)c(C4CCN([C@]5(C)COC[C@@H]5O)CC4)cc3n2)c1C#N (single isomer, unassigned) [Ex-2.86, (3S,4S) or (3R,4R) 5-({6-chloro-7-[1-(4-hydroxy-3-methyloxolan-3-yl)piperidin-4-yl]quinazolin-2-yl}amino)-l,3-dimethyl-1H-pyrazole-4-carbonitrile] was run?
A: 8.05

Q: How did the “LRRK2 pIC50” value turn out when C[C@@]1(N2CCC(c3cc4nc(Nc5ccnn5C5CC5(F)F)ncc4cc3Cl)CC2)COC[C@@H]1O (single isomer, unassigned) [Ex-2.87, (S)(3S,4S) or (S)(3R,4R) or (R)(3S,4S) or (R)(3R,4R) 4-[4-(6-chloro-2-{[1-(2,2-difluorocyclopropyl)-1H-pyrazol-5-yl]amino}quinazolin-7-yl)piperidin-1-yl]-4-methyloxolan-3-ol] was run?
A: 8.04

Q: With CC1(n2ncc(Nc3ncc4cc(Cl)c(C5CCN([C@]6(C)COC[C@@H]6O)CC5)cc4n3)c2Cl)CC1 (single isomer, unassigned) [Ex-2.88, (3S,4S) or (3R,4R) 4-[4-(6-chloro-2-{[5-chloro-1-(1-methylcyclopropyl)-1H-pyrazol-4-yl]amino}quinazolin-7-yl)piperidin-1-yl]-4-methyloxolan-3-ol] as the molecule, how does the “LRRK2 pIC50” value read?
A: >9.20

Q: How did the “LRRK2 pIC50” value turn out when Cn1nc(C(F)(F)F)cc1Nc1ncc2cc(Cl)c(C3CCN([C@]4(C)COC[C@@H]4O)CC3)cc2n1 (single isomer, unassigned) [Ex-2.89, (3S,4S) or (3R,4R) 4-[4-(6-chloro-2-{[1-methyl-3-(trifluoromethyl)-1H-pyrazol-5-yl]amino}quinazolin-7-yl)piperidin-1-yl]-4-methyloxolan-3-ol] was run?
A: 7.39

Q: Which “LRRK2 pIC50” value does the source give for Cn1ncc(Nc2ncc3cc(Cl)c(C4CCN([C@]5(C)COC[C@@H]5O)CC4)cc3n2)c1C(F)(F)F (single isomer, unassigned) [Ex-2.90, (3S,4S) or (3R,4R) 4-(4-(6-chloro-2-((1-methyl-5-(trifluoromethyl)-1H-pyrazol-4-yl)amino)quinazolin-7-yl)piperidin-1-yl)-4-methyltetrahydrofuran-3-olyl)piperidin-1-yl]-4-methyloxolan-3-ol] here?
A: >9.20

Q: For C[C@@]1(N2CCC(c3cc4nc(Nc5cnn(C6CC6)c5C(F)F)ncc4cc3Cl)CC2)COC[C@@H]1O (single isomer, unassigned) [Ex-2.91, (3S,4S) or (3R,4R) 4-[4-(6-chloro-2-{[1-cyclopropyl-5-(difluoromethyl)-1H-pyrazol-4-yl]amino}quinazolin-7-yl)piperidin-1-yl]-4-methyloxolan-3-ol], which “LRRK2 pIC50” value is on record?
A: >9.20

Q: CC1(N2CCC(n3ncc(Nc4ncc5cc(Cl)c(C6CC6(F)F)cc5n4)c3Cl)C(F)C2)COC1 (single isomer, unassigned) [Ex-3.1, (3R,4R)(7S) or (3R,4R)(7R) or (3S,4S)(7S) or (3S,4S)(7R) 6-chloro-N-(5-chloro-1-(3-fluoro-1-(3-methyloxetan-3-yl)piperidin-4-yl)-1H-pyrazol-4-yl)-7-(2,2-difluorocyclopropyl)quinazolin-2-amine] was tested. Which “LRRK2 pIC50” value did it give?
A: 7.54

Q: Which “LRRK2 pIC50” value does the source give for CC1(N2CCC(n3ncc(Nc4ncc5cc(Cl)c(C6CC6(F)F)cc5n4)c3Cl)C(F)C2)COC1 (single isomer, unassigned) [Ex-3.2, (3R,4R)(7S) or (3R,4R)(7R) or (3S,4S)(7S) or (3S,4S)(7R) 6-chloro-N-(5-chloro-1-(3-fluoro-1-(3-methyloxetan-3-yl)piperidin-4-yl)-1H-pyrazol-4-yl)-7-(2,2-difluorocyclopropyl)quinazolin-2-amine] here?
A: 7.07
